As usually defined, the EC50 is the concentration at which the effect is half-maximal. By IC50 is commonly meant the point on the concentration scale where inhibition reaches its midpoint.

The values that follow come from US12325697B2 (Nimbus Clio, Inc., priority 2021, dated 2025).

In assay [1] the test system is Jurkat (clone E6-1) cells, NFAT luciferase reporter. The assay can be described thus: Jurkat Reporter Assay (NFAT Luciferase). The format is cell-based. To be noted: Homo sapiens, anti-CD3 stimulation, 6 hr, read-out: Jurkat NFAT EC50. In general terms: In a reporter assay the amount or activity of a reporter protein is the signal.
The target of assay [2] is Recombinant human Cbl-b (aa 36-427) (Homo sapiens (Human), UniProt Q13191). As to the kind of experiment: Cbl-b Biochemical Assay (TR-FRET). The settings on record: read-out: TR-FRET hCbl-b IC50. In outline: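 Two-step TR-FRET: 6 nM biotinylated Cbl-b preincubated 30-60 min with compound, then 60 min at RT with 1-2.5 nM Src-Zap70 and 0.5 mM ATP in HEPES pH 7.0 buffer, 1% DMSO. Stopped with 5 mM EDTA plus 100 nM UBE2D2-Ub-FL-BODIPY and 1 nM streptavidin-Tb, 60 min; 520 nm signal; IC50 from 4-parameter fit.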
A general note: TR-FRET usually uses a lanthanide donor and a delayed reading to cut background.

Sequence of Recombinant human Cbl-b (aa 36-427) (Q13191 36-427): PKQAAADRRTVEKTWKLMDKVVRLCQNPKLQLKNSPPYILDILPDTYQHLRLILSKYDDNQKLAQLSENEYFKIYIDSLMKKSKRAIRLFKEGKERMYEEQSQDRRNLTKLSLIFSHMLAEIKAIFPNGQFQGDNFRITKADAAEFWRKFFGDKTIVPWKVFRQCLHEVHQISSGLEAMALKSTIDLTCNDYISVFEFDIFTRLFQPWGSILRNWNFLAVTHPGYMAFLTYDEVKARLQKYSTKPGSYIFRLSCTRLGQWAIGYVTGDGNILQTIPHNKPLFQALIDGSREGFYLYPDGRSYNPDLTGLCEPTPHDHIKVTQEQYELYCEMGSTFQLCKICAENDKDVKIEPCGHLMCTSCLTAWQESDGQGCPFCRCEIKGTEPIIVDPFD

For `Cn1cnnc1-c1ccccc1-c1cc(N2Cc3c(cc(CO)cc3C(F)(F)F)C2=O)nc(N2Cc3c(cc(CO)cc3C(F)(F)F)C2=O)c1` [ACX-2, 6-(Hydroxymethyl)-2-{6-[6-(hydroxymethyl)-1-oxo-4-(trifluoromethyl)-3H-isoindol-2-yl]-4-[2-(4-methyl-1,2,4-triazol-3-yl)phenyl]pyridin-2-yl}-4-(trifluoromethyl)-3H-isoindol-1-one], the EC50 in assay [1] fell in the range of 10 to 50 µM. For the same molecule, the IC50 in assay [2] lay within 10 to 50 µM.

`CCNc1cc(-c2c(-c3nncn3C)cnn2C)cc(N2Cc3c(cc(CNCCOCCOCCOCCNC(=O)CCc4ccc5n4[B-](F)(F)[N+]4=C(c6ccc[nH]6)C=CC4=C5)cc3C(F)(F)F)C2=O)n1` [ACZ-5]: the EC50 in assay [1] fell in the range of 10 to 50 µM. In addition, the IC50 in assay [2] was at most 0.2 µM.

As to `CCNc1cc(-c2c(-c3nncn3C)cnn2C)cc(N2Cc3c(cc(CNCCOCCOCCOCCNC(=O)CCc4ccc5n4[B-](F)(F)[N+]4=C(C)C=C(C)C4=C5)cc3C(F)(F)F)C2=O)n1` [ADD-2, 4-{2-[(1-{2-[6-(Ethylamino)-4-[2-methyl-4-(4-methyl-1,2,4-triazol-3-yl)pyrazol-3-yl]pyridin-2-yl]-3-oxo-7-(trifluoromethyl)-1H-isoindol-5-yl}-5,8,11-trioxa-2-azatridecan-13-yl)carbamoyl]ethyl}-2,2-difluoro-10,12-dimethyl-1lambda5,3-diaza-2-boratricyclo[7.3.0.0^{3,7}]dodeca-1(12),4,6,8,10-pentaen-1-ylium-2-uide], the EC50 in assay [1] lay within 10 to 50 µM. Further, the IC50 in assay [2] was in the range of 10 to 50 µM.

In the case of `CCNc1cc(-c2c(-c3nncn3C)cnn2C)cc(N2Cc3c(cc(COc4cnoc4)cc3C(F)(F)F)C2=O)n1` [ADE-2, 2-[6-(Ethylamino)-4-[2-methyl-4-(4-methyl-1,2,4-triazol-3-yl)pyrazol-3-yl]pyridin-2-yl]-6-[(1,2-oxazol-4-yloxy)methyl]-4-(trifluoromethyl)-3H-isoindol-1-one], in assay [1], the EC50 is 1 to 10 µM. For the same molecule, the IC50 in assay [2] was at most 0.2 µM.

Consider `Cn1cnnc1-c1cc(C#N)ccc1-c1cccc(N2Cc3c(cc(CO)cc3C(F)(F)F)C2=O)c1` [ADG-3, 3′-[6-(Hydroxymethyl)-1-oxo-4-(trifluoromethyl)-3H-isoindol-2-yl]-2-(4-methyl-1,2,4-triazol-3-yl)-[1,1′-biphenyl]-4-carbonitrile], for which the EC50 in assay [1] was in the range of 10 to 50 µM. For the same molecule, in assay [2], the IC50 was at most 0.2 µM.

As to `CCNc1cc(-c2c(-c3nncn3C)cnn2C)cc(N2Cc3c(cc(CO[C@H]4CCC[C@H]4O)cc3C(F)(F)F)C2=O)n1` [ADI-1, 2-[6-(Ethylamino)-4-[2-methyl-4-(4-methyl-1,2,4-triazol-3-yl)pyrazol-3-yl]pyridin-2-yl]-6-({[(1S,2R)-2-hydroxycyclopentyl]oxy}methyl)-4-(trifluoromethyl)-3H-isoindol-1-one], in assay [1], the EC50 lay in the range of 0.2 to 1 µM. For the same molecule, in assay [2], the half-maximal inhibitory concentration (IC50) was at most 0.2 µM.

Regarding `Cn1cnnc1-c1cc(C(N)=O)ccc1-c1cccc(N2Cc3c(cc(CO)cc3C(F)(F)F)C2=O)c1` [ADK-1, 3′-[6-(Hydroxymethyl)-1-oxo-4-(trifluoromethyl)-3H-isoindol-2-yl]-2-(4-methyl-1,2,4-triazol-3-yl)-[1,1′-biphenyl]-4-carboxamide], in assay [1], the EC50 was in the range of 10 to 50 µM. Besides, the IC50 in assay [2] is 1 to 10 µM.

Take `Cn1cnnc1-c1ccccc1-c1cccc(N2Cc3c(cc(CO[C@@H]4CCC[C@H]4O)cc3C(F)(F)F)C2=O)c1` [ADL-4, 6-({[(1R,2R)-2-Hydroxycyclopentyl]oxy}methyl)-2-[2′-(4-methyl-1,2,4-triazol-3-yl)-[1,1′-biphenyl]-3-yl]-4-(trifluoromethyl)-3H-isoindol-1-one]: the EC50 in assay [1] was 1 to 10 µM. In addition, in assay [2], the IC50 was at most 0.2 µM.

Regarding `Cn1cnnc1-c1ccc(C#N)cc1-c1cccc(N2Cc3c(cc(CO)cc3C(F)(F)F)C2=O)c1` [ADM-6, 3′-[6-(Hydroxymethyl)-1-oxo-4-(trifluoromethyl)-3H-isoindol-2-yl]-6-(4-methyl-1,2,4-triazol-3-yl)-[1,1′-biphenyl]-3-carbonitrile], the EC50 in assay [1] fell in the range of 10 to 50 µM. In addition, the IC50 in assay [2] was 0.2 to 1 µM.

As for `CCNc1cc(-c2cc(C#N)ccc2-c2nncn2C)cc(N2Cc3c(cccc3C(F)(F)F)C2=O)n1` [ADS-6, 3-[2-(Ethylamino)-6-[1-oxo-4-(trifluoromethyl)-3H-isoindol-2-yl]pyridin-4-yl]-4-(4-methyl-1,2,4-triazol-3-yl)benzonitrile], the EC50 in assay [1] lay in the range of 1 to 10 µM. Moreover, the IC50 in assay [2] is at most 0.2 µM.

For `Cn1cnnc1-c1cc(C#N)ccc1-c1cccc(C(=O)Nc2cc(CN[C@@H]3CCC[C@@H]3O)cc(C(F)(F)F)c2N)c1` [ADW-5, N-[2-Amino-5-({[(1R,2S)-2-hydroxycyclopentyl]amino}methyl)-3-(trifluoromethyl)phenyl]-4′-cyano-2′-(4-methyl-1,2,4-triazol-3-yl)-[1,1′-biphenyl]-3-carboxamide], the EC50 in assay [1] lay within 10 to 50 µM. Also, in assay [2], the IC50 was in the range of 1 to 10 µM.

For the molecule `CCNc1cc(-c2c(-c3nncn3C)cnn2C)cc(N2Cc3c(cc(COCC(C)(C)O)cc3C(F)(F)F)C2=O)n1` [ADY-2, 2-[6-(Ethylamino)-4-[2-methyl-4-(4-methyl-1,2,4-triazol-3-yl)pyrazol-3-yl]pyridin-2-yl]-6-[(2-hydroxy-2-methylpropoxy)methyl]-4-(trifluoromethyl)-3H-isoindol-1-one], in assay [1], the EC50 was in the range of 0.2 to 1 µM. The IC50 in assay [2] was at most 0.2 µM.

In the case of `Cn1cnnc1-c1cc(C#N)ccc1-c1cccc(N2Cc3c(cc(CNCCO)cc3C(F)(F)F)C2=O)c1` [AEA-2, 3′-(6-{[(2-Hydroxyethyl)amino]methyl}-1-oxo-4-(trifluoromethyl)-3H-isoindol-2-yl)-2-(4-methyl-1,2,4-triazol-3-yl)-[1,1′-biphenyl]-4-carbonitrile], the EC50 in assay [1] was in the range of 1 to 10 µM. The IC50 in assay [2] is at most 0.2 µM.

As for `CCNc1cc(-c2c(-c3nncn3C)cnn2C)cc(N2Cc3ccc(CNCC4(O)CCC4)cc3C2=O)n1` [AEE-2, 2-[6-(Ethylamino)-4-[2-methyl-4-(4-methyl-1,2,4-triazol-3-yl)pyrazol-3-yl]pyridin-2-yl]-6-({[(1-hydroxycyclobutyl)methyl]amino}methyl)-3H-isoindol-1-one], in assay [1], the EC50 lay within 0.2 to 1 µM. Moreover, in assay [2], the IC50 is at most 0.2 µM.

`Cn1cnnc1-c1cc(C#N)ccc1-c1cc(C2CC2)nc(N2Cc3c(cccc3C(F)(F)F)C2=O)c1` [AEG-3, 4-{2-Cyclopropyl-6-[1-oxo-4-(trifluoromethyl)-3H-isoindol-2-yl]pyridin-4-yl}-3-(4-methyl-1,2,4-triazol-3-yl)benzonitrile]: the EC50 in assay [1] lay in the range of 0.2 to 1 µM. Also, in assay [2], the IC50 is at most 0.2 µM.

With `CCNc1cc(-c2c(-c3nncn3C)cnn2C)cc(N2Cc3c(cc(CN(C)CC4(OC)CCC4)cc3C(F)(F)F)C2=O)n1` [AEK-3, 2-(6-(Ethylamino)-4-(1-methyl-4-(4-methyl-4H-1,2,4-triazol-3-yl)-1H-pyrazol-5-yl)pyridin-2-yl)-6-((((1-methoxycyclobutyl)methyl)(methyl)amino)methyl)-4-(trifluoromethyl)isoindolin-1-one], the EC50 in assay [1] lay in the range of 0.2 to 1 µM. Also, in assay [2], the IC50 was at most 0.2 µM.

For `CCNc1cc(-c2ccc(C#N)cc2-c2nncn2C)cc(N2Cc3c(cc(N4CCCC4)cc3C(F)(F)F)C2=O)n1` [AEP-2, 4-[2-(Ethylamino)-6-[1-oxo-6-(pyrrolidin-1-yl)-4-(trifluoromethyl)-3H-isoindol-2-yl]pyridin-4-yl]-3-(4-methyl-1,2,4-triazol-3-yl)benzonitrile], the EC50 in assay [1] fell in the range of 10 to 50 µM. In assay [2], the IC50 lay in the range of 0.2 to 1 µM.
